System: C. elegans transcriptome
Assay: Transcriptome profiling (Affymetrix microarrays), differentially expressed genes
Type: in vivo, Caenorhabditis elegans
Protocol: To gain additional insight into the effect of LK molecules on C. elegans, young-adult, wild-type worms were treated with each drug at 100 µM for 8 h in the absence of pathogen. RNA was collected, and transcriptome profiling was performed.
Data were determined using Affymetrix microarrays, as described in Materials and Methods. Download Table S3, XLSX file, 0.07 MB.
Transcriptome profiling was performed on ∼6,000 wild-type, young adult worms incubated with either LK molecules or DMSO for 8 h. RNA isolation was performed using TRIzol extraction, followed by cleanup using RNeasy columns according to the manufacturer’s protocol. Each condition was analyzed in triplicate. Microarray data have been deposited in the GEO database, accession number GSE137516. […] Clustering and generation of the heat map was performed using Cluster 3.0 ([98]) and Treeview ([99]), respectively. Fold change of genes were normalized to average fold change of that gene over all clustered conditions. Genes and conditions were clustered using Euclidean distance and average linkages. […] Microarray data for non-LK molecules were collected from GEO omnibus. WormEXP was used as a secondary method for confirming statistical significance of potential pathways stimulated by each of the LK molecules ([100]). Gene ontologies were generated using DAVID ([101], [102]).

CNC(=O)Oc1c(Br)cc2sc(=O)oc2c1Br [LK34]
Fold Change (upregulated gene W04B5.3, Affy_ID 173153_s_at): 2.678
Fold Change (upregulated gene W05G11.6, Affy_ID 192581_s_at): 4.517
Fold Change (upregulated gene W05H9.1, Affy_ID 179806_at): 2.462
Fold Change (upregulated gene W06D4.1, Affy_ID 172046_x_at): 3.704
Fold Change (upregulated gene W06D12.3, Affy_ID 192357_at): 7.111
Fold Change (upregulated gene W06H8.1, Affy_ID 185746_s_at): 2.211
Fold Change (upregulated gene W09C3.1, Affy_ID 192187_s_at): 2.464
Fold Change (upregulated gene W09D10.2, Affy_ID 188190_at): 2.479
Fold Change (upregulated gene Y17G7B.5, Affy_ID 191321_s_at): 2.063
Fold Change (upregulated gene Y19D10A.9, Affy_ID 180592_s_at): 3.023
Fold Change (upregulated gene Y22F5A.4, Affy_ID 182989_at): 2.493
Fold Change (upregulated gene Y22F5A.5, Affy_ID 183028_s_at): 6.999
Fold Change (upregulated gene Y25C1A.13, Affy_ID 192131_s_at): 2.041
Fold Change (upregulated gene Y37A1B.5, Affy_ID 182849_at): 3.394
Fold Change (upregulated gene Y37D8A.3, Affy_ID 182387_at): 3.237
Fold Change (upregulated gene Y37D8A.6, Affy_ID 181665_at): 3.132
Fold Change (upregulated gene Y37E3.16, Affy_ID 173045_at): 3.373
Fold Change (upregulated gene Y38E10A.14, Affy_ID 175449_s_at): 19.1307
Fold Change (upregulated gene Y38F1A.9, Affy_ID 183759_at): 3.202
Fold Change (upregulated gene Y39G10AR.10, Affy_ID 176486_at): 3.752
Fold Change (upregulated gene Y40B10A.6, Affy_ID 176851_at): 72.4303
Fold Change (upregulated gene Y41C4A.16, Affy_ID 194230_x_at): 2.854
Fold Change (upregulated gene Y41D4B.10, Affy_ID 176055_at): 12.5937
Fold Change (upregulated gene Y41D4B.16, Affy_ID 176044_at): 3.687
Fold Change (upregulated gene Y42G9A.3, Affy_ID 184843_at): 2.448
Fold Change (upregulated gene Y45F3A.3, Affy_ID 190484_at): 2.142
Fold Change (upregulated gene Y45F10C.4, Affy_ID 186062_at): 3.365
Fold Change (upregulated gene Y45G12C.2, Affy_ID 187084_at): 44.4121
Fold Change (upregulated gene Y47D3B.10, Affy_ID 175803_at): 16.792
Fold Change (upregulated gene Y47H9C.5, Affy_ID 191065_s_at): 3.655
Fold Change (upregulated gene Y51H7C.1, Affy_ID 186349_at): 10.7753
Fold Change (upregulated gene Y53C10A.5, Affy_ID 185387_s_at): 2.3
Fold Change (upregulated gene Y53F4B.33, Affy_ID 191337_at): 3.746
Fold Change (upregulated gene Y53G8B.2, Affy_ID 184714_s_at): 12.3167
Fold Change (upregulated gene Y55B1AR.1, Affy_ID 187047_at): 6.102
Fold Change (upregulated gene Y57A10A.23, Affy_ID 187073_at): 4.099
Fold Change (upregulated gene Y57G7A.1, Affy_ID 184451_at): 2.494
Fold Change (upregulated gene Y66D12A.24, Affy_ID 175124_at): 2.157
Fold Change (upregulated gene Y73F4A.1, Affy_ID 183741_s_at): 2.361
Fold Change (upregulated gene Y77E11A.2, Affy_ID 187013_at): 2.74
Fold Change (upregulated gene Y105C5B.15, Affy_ID 186799_at): 3.153
Fold Change (upregulated gene Y105C5B.9, Affy_ID 185162_at): 4.733
Fold Change (upregulated gene Y106G6D.6, Affy_ID 185498_at): 6.605
Fold Change (upregulated gene Y110A2AL.4, Affy_ID 175367_s_at): 14.9078
Fold Change (upregulated gene ZC64.2, Affy_ID 177670_at): 2.001
Fold Change (upregulated gene ZC155.1, Affy_ID 173222_s_at): 2.272
Fold Change (upregulated gene ZC455.4, Affy_ID 191057_s_at): 5.011
Fold Change (upregulated gene ZK6.10, Affy_ID 175170_s_at): 5.465
Fold Change (upregulated gene ZK455.1, Affy_ID 193891_at): 2.692
Fold Change (upregulated gene ZK512.7, Affy_ID 186714_s_at): 3.907
Fold Change (upregulated gene ZK550.6, Affy_ID 186811_s_at): 2.631
Fold Change (upregulated gene ZK637.13, Affy_ID 173475_s_at): 3.509
Fold Change (upregulated gene ZK688.6, Affy_ID 176040_s_at): 2.439
Fold Change (upregulated gene ZK770.3, Affy_ID 180366_s_at): 3.016
Fold Change (upregulated gene ZK829.9, Affy_ID 189819_s_at): 5.03
Fold Change (upregulated gene ZK899.2, Affy_ID 178376_s_at): 4.028
Fold Change (upregulated gene ZK1058.6, Affy_ID 188607_at): 45.3463
Fold Change (upregulated gene ZK1251.2, Affy_ID 188538_at): 5.974
Fold Change (upregulated gene ZK1290.8, Affy_ID 184676_s_at): 4.32

From article PMC7845594, “Novel Immune Modulators Enhance Caenorhabditis elegans Resistance to Multiple Pathogens” (mSphere, 2021)
